Numbered stars: 1 amine (or outer) side, 2 acyl side, 3 side chain; on linkers, the order of the positions; unused ones are H or OH. Square brackets hold non-standard residues; d marks the D form. Side chains are listed from the residue outwards. Peptide text beside a SMILES is read from it. * marks the point of attachment. C20 diacid = O=C(O)CCCCCCCCCCCCCCCCCCC(=O)*; C18 diacid = O=C(O)CCCCCCCCCCCCCCCCC(=O)*; αMePhe(2-F) = C[C@](N)(Cc1ccccc1F)C(=O)O; γGlu = O=C(O)[C@H](CCC(=O)[*:2])N[*:1]; αMeY = C[C@](N)(Cc1ccc(O)cc1)C(=O)O; αMeL = CC(C)C[C@](C)(N)C(=O)O; Orn = NCCC[C@H](N)C(=O)O; AEEA = NCCOCCOCC(=O)O; Aib = CC(C)(N)C(=O)O
Key:
[1] = biological target: T1, human Gcg receptor (Homo sapiens, UniProt P47871); assay: [125I]-Glucagon binding (SPA), human Gcg receptor; details: read-out: hGLcgR Ki, nM (SEM, n)
T1 construct: expressed in transfected cells; crude membranes
Procedure, shortened: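 Crude membranes from cells expressing the receptor, prepared by hypotonic lysis in 50 mM Tris HCl pH 7.5 with protease inhibitors, homogenization and differential centrifugation, were used in a WGA-bead SPA. Binding buffer: 25 mM HEPES pH 7.4, 2.5 mM CaCl2, 1 mM MgCl2, bacitracin, Tween-20.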

[2] = biological target: human GLP-1 receptor (GLP-1R) (Homo sapiens, UniProt P43220); assay: cAMP pharmacological functional assay in presence of casein, hGLP-1R; assay type: cell-based; details: HEK293 cells expressing hGLP-1R, 0.1% Casein, geometric mean; read-out: hGLP1R cAMP Rel EC50 nM (SEM, n)
[3] = biological target: human GLP-1R (Homo sapiens, UniProt P43220); assay: [125I]-GLP-1 binding (SPA), human GLP-1 receptor; design: expressed in transfected cells; crude membranes; details: read-out: hGLP1R Ki, (nM) (SEM, n)
Procedure, shortened: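 Membranes: hypotonic lysis (50 mM Tris HCl, pH 7.5, protease inhibitors), Potter-Elvehjem homogenization, high-speed pellet (35000×g 1 h or 25000×g 30 min, 4° C.). Buffer: 25 mM HEPES pH 7.4, 2.5 mM CaCl2, 1 mM MgCl2. Four-parameter IC50 fit; Ki as geometric mean ± SEM.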

[4] = biological target: T2, gastric inhibitory peptide receptor (GIPR) (Homo sapiens, UniProt P48546); assay: cAMP pharmacological functional assay in presence of casein, hGIPR; assay type: cell-based; details: HEK293 cells expressing hGIPR, 0.1% Casein, geometric mean; read-out: hGIPR cAMP Rel EC50 nM (SEM, n)
T2 sequence (P48546 22-466): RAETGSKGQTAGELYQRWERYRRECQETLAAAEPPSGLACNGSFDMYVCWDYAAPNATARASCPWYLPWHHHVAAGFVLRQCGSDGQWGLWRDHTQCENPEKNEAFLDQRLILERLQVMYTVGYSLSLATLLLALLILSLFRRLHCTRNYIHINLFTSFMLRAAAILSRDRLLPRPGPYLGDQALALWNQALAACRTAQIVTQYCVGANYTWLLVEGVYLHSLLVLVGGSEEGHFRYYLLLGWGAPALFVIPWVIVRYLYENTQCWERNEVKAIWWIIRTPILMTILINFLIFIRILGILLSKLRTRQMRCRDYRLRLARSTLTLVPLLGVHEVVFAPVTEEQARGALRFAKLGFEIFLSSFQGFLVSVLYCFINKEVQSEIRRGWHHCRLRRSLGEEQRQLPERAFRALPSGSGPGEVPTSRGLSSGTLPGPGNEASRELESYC

[5] = biological target: T3, human GIP receptor (Homo sapiens, UniProt P48546); assay: [125I]-GIP binding (SPA), human GIP receptor; details: read-out: hGIPR Ki, nM (SEM, n)
T3 construct: expressed in transfected cells; crude membranes
T3 sequence (P48546 22-466): T2 sequence (P48546 22-466)

human GLP-1R, sequence (P43220 24-463): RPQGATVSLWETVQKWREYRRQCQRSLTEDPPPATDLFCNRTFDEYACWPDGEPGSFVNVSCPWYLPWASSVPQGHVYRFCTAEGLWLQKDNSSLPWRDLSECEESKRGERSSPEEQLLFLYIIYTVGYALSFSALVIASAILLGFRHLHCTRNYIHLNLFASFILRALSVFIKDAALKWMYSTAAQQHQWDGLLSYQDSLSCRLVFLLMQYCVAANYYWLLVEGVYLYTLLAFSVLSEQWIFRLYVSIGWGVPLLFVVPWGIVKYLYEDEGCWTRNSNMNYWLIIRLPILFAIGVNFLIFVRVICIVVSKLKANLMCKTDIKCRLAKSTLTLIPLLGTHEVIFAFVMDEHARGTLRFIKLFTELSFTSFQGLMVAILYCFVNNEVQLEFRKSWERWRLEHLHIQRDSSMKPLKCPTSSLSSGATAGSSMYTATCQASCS
human GLP-1 receptor (GLP-1R), sequence (P43220 24-463): as above
T1 sequence (P47871 26-477): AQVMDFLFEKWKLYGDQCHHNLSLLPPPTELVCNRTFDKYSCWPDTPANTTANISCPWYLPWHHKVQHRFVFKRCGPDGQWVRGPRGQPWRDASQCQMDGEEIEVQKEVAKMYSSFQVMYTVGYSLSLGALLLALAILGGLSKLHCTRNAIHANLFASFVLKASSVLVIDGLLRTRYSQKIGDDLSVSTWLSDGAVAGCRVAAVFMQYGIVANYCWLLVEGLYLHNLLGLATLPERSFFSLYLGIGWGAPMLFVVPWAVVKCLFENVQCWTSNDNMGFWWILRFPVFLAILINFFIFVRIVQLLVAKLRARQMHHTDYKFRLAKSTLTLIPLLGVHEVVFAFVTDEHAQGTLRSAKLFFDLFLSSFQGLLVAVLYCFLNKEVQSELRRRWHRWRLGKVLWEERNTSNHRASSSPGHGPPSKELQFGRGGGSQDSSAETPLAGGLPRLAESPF

Compound	Ki [1] [nM]	EC50 [2] [nM]	Ki [3] [nM]	EC50 [4] [nM]	Ki [5] [nM]
CC[C@H](C)[C@H](NC(=O)[C@H](CCCCN)NC(=O)[C@H](CC(=O)O)NC(=O)[C@H](CC(C)C)NC(=O)[C@H](CC(C)C)NC(=O)[C@@H](NC(=O)[C@H](CO)NC(=O)[C@H](Cc1ccc(O)cc1)NC(=O)[C@H](CC(=O)O)NC(=O)[C@H](CO)NC(=O)[C@@H](NC(=O)[C@H](Cc1ccccc1)NC(=O)[C@@H](NC(=O)CNC(=O)[C@H](CCC(=O)O)NC(=O)C(C)(C)NC(=O)[C@@H](N)Cc1ccc(O)cc1)[C@@H](C)O)[C@@H](C)O)[C@@H](C)CC)C(=O)N[C@@H](C)C(=O)N[C@@H](CCC(N)=O)C(=O)NC(C)(C)C(=O)N[C@@H](C)C(=O)N[C@@H](Cc1ccccc1)C(=O)N[C@H](C(=O)N[C@@H](CCC(=O)O)C(=O)N[C@@H](Cc1ccc(O)cc1)C(=O)N[C@@H](CCCCNC(=O)COCCOCCNC(=O)COCCOCCNC(=O)CC[C@H](NC(=O)CCCCCCCCCCCCCCCCCCC(=O)O)C(=O)O)C(=O)N[C@H](C(=O)N[C@@H](CCC(=O)O)C(=O)NCC(=O)NCC(=O)N1CCC[C@H]1C(=O)N[C@@H](CO)C(=O)N[C@@H](CO)C(=O)NCC(=O)N[C@@H](C)C(=O)N1CCC[C@H]1C(=O)N1CCC[C@H]1C(=O)N1CCC[C@H]1C(=O)N[C@@H](CO)C(N)=O)[C@@H](C)CC)[C@@H](C)CC [Example 35] (H-Y[Aib]EGTFTSDYSILLDKIAQ[Aib]AFIEYK([AEEA-AEEA-γGlu-C20 diacid])IEGGPSSGAPPPS-NH2)	> 964	8.38	54.6	0.0905	0.0358
CC[C@H](C)[C@H](NC(=O)[C@H](Cc1ccccc1)NC(=O)[C@H](C)NC(=O)C(C)(C)NC(=O)[C@H](CCC(N)=O)NC(=O)[C@H](C)NC(=O)[C@H](CCCCNC(=O)COCCOCCNC(=O)COCCOCCNC(=O)CC[C@H](NC(=O)CCCCCCCCCCCCCCCCCCC(=O)O)C(=O)O)NC(=O)[C@H](CO)NC(=O)[C@H](CC(=O)O)NC(=O)[C@H](CC(C)C)NC(=O)[C@](C)(CC(C)C)NC(=O)[C@@H](NC(=O)[C@H](CO)NC(=O)[C@H](Cc1ccc(O)cc1)NC(=O)[C@H](CC(=O)O)NC(=O)[C@H](CO)NC(=O)[C@@H](NC(=O)[C@H](Cc1ccccc1)NC(=O)[C@@H](NC(=O)CNC(=O)[C@H](CCC(=O)O)NC(=O)C(C)(C)NC(=O)[C@@H](N)Cc1ccc(O)cc1)[C@@H](C)O)[C@@H](C)O)[C@@H](C)CC)C(=O)N[C@@H](CCC(=O)O)C(=O)N[C@@H](Cc1ccc(O)cc1)C(=O)N[C@@H](CC(C)C)C(=O)N[C@@H](CC(C)C)C(=O)N[C@@H](CCC(=O)O)C(=O)NCC(=O)NCC(=O)N1CCC[C@H]1C(=O)N[C@@H](CO)C(=O)N[C@@H](CO)C(=O)NCC(=O)N[C@@H](C)C(=O)N1CCC[C@H]1C(=O)N1CCC[C@H]1C(=O)N1CCC[C@H]1C(=O)N[C@@H](CO)C(N)=O [Example 61] (H-Y[Aib]EGTFTSDYSI[αMeL]LDSK([AEEA-AEEA-γGlu-C20 diacid])AQ[Aib]AFIEYLLEGGPSSGAPPPS-NH2)	110	0.371	11.1	0.0739	0.102
CC[C@H](C)[C@H](NC(=O)[C@H](CC(C)C)NC(=O)[C@](C)(Cc1ccc(O)cc1)NC(=O)[C@@H](CCC(=O)O)NC(=O)[C@@H](NC(=O)[C@H](Cc1ccccc1)NC(=O)[C@H](CCC(=O)O)NC(=O)C(C)(C)NC(=O)[C@H](CCC(N)=O)NC(=O)[C@H](C)NC(=O)[C@H](CCCCNC(=O)COCCOCCNC(=O)COCCOCCNC(=O)CC[C@H](NC(=O)CCCCCCCCCCCCCCCCC(=O)O)C(=O)O)NC(=O)[C@H](CCCN)NC(=O)[C@H](CC(=O)O)NC(=O)[C@H](CC(C)C)NC(=O)[C@](C)(CC(C)C)NC(=O)[C@@H](NC(=O)[C@H](CO)NC(=O)[C@H](Cc1ccncc1)NC(=O)[C@H](CC(=O)O)NC(=O)[C@H](CO)NC(=O)[C@@H](NC(=O)[C@](C)(Cc1ccccc1F)NC(=O)[C@@H](NC(=O)CNC(=O)[C@H](CCC(=O)O)NC(=O)C(C)(C)NC(=O)[C@@H](N)Cc1ccc(O)cc1)[C@@H](C)O)[C@@H](C)O)[C@@H](C)CC)[C@@H](C)CC)C(=O)N[C@@H](CCC(=O)O)C(=O)NCC(=O)NCC(=O)N1CCC[C@H]1C(=O)N[C@@H](CO)C(=O)N[C@@H](CO)C(=O)NCC(N)=O [Example 264]	388	0.0229	0.412	0.0196	0.015
CC[C@H](C)[C@H](NC(=O)[C@H](CC(C)C)NC(=O)[C@](C)(Cc1ccc(O)cc1)NC(=O)[C@@H](CCC(=O)O)NC(=O)[C@@H](NC(=O)[C@H](Cc1ccccc1)NC(=O)[C@H](C)NC(=O)C(C)(C)NC(=O)[C@H](CCC(N)=O)NC(=O)[C@H](C)NC(=O)[C@H](CCCCNC(=O)COCCOCCNC(=O)COCCOCCNC(=O)CC[C@H](NC(=O)CCCCCCCCCCCCCCCCC(=O)O)C(=O)O)NC(=O)[C@H](CCCN)NC(=O)[C@H](CC(=O)O)NC(=O)[C@H](CC(C)C)NC(=O)[C@](C)(CC(C)C)NC(=O)[C@@H](NC(=O)[C@H](CO)NC(=O)[C@@H](NC(=O)[C@H](CC(=O)O)NC(=O)[C@H](CO)NC(=O)[C@@H](NC(=O)[C@](C)(Cc1ccccc1F)NC(=O)[C@@H](NC(=O)CNC(=O)[C@H](CCC(=O)O)NC(=O)C(C)(C)NC(=O)[C@@H](N)Cc1ccc(O)cc1)[C@@H](C)O)[C@@H](C)O)C(C)C)[C@@H](C)CC)[C@@H](C)CC)C(=O)N[C@@H](CCC(=O)O)C(=O)NCC(=O)NCC(=O)N1CCC[C@H]1C(=O)N[C@@H](CO)C(=O)N[C@@H](CO)C(=O)NCC(=O)N[C@@H](C)C(=O)N1CCC[C@H]1C(=O)N1CCC[C@H]1C(=O)N1CCC[C@H]1C(=O)N[C@@H](CO)C(N)=O [Example 242] (H-Y[Aib]EGT[αMePhe(2-F)]TSDVSI[αMeL]LD[Orn]K([AEEA-AEEA-γGlu-C18 diacid])AQ[Aib]AFI[dE][αMeY]LIEGGPSSGAPPPS-NH2)	95.9	0.0164	0.853	0.0333	0.0604
CC[C@H](C)[C@H](NC(=O)[C@H](CC(C)C)NC(=O)[C@H](Cc1ccc(O)cc1)NC(=O)[C@H](CCC(=O)O)NC(=O)[C@@H](NC(=O)[C@H](Cc1ccccc1)NC(=O)[C@H](C)NC(=O)C(C)(C)NC(=O)[C@H](CCC(N)=O)NC(=O)[C@H](C)NC(=O)[C@H](CCCCNC(=O)COCCOCCNC(=O)COCCOCCNC(=O)CC[C@H](NC(=O)CCCCCCCCCCCCCCCCCCC(=O)O)C(=O)O)NC(=O)[C@@H](NC(=O)[C@H](CC(=O)O)NC(=O)[C@H](CC(C)C)NC(=O)[C@](C)(CC(C)C)NC(=O)[C@@H](NC(=O)[C@H](CO)NC(=O)[C@H](Cc1ccc(O)cc1)NC(=O)[C@H](CC(=O)O)NC(=O)[C@H](CO)NC(=O)[C@@H](NC(=O)[C@H](Cc1ccccc1)NC(=O)[C@@H](NC(=O)CNC(=O)[C@H](CCC(=O)O)NC(=O)C(C)(C)NC(=O)[C@@H](N)Cc1ccc(O)cc1)[C@@H](C)O)[C@@H](C)O)[C@@H](C)CC)[C@@H](C)O)[C@@H](C)CC)C(=O)N[C@@H](CCC(=O)O)C(=O)NCC(=O)NCC(N)=O [Example 65] (H-Y[Aib]EGTFTSDYSI[αMeL]LDTK([AEEA-AEEA-γGlu-C20 diacid])AQ[Aib]AFIEYLIEGG-NH2; N-terminus assumed)	194	0.289	4.53	0.143	0.0643

From US12252524B2, “GIP/GLP1 co-agonist compounds” (Eli Lilly and Company, priority 2018, dated 2025)
